According to patent US20030225044A1, “Method to increase serum levels of vitamins in animals including humans” (priority 2002, published 2003):

Legend:
[1] = Serum Vitamin E after nasal administration or drench (Example VI); format: in vivo, beef steers
Protocol: (§1) These five treatments were:
(§2) Treatments were applied and cattle were bled via jugular venipuncture at 0, 6, and 24 hours post-dosing.

[2] = Serum Vitamin A after nasal administration or drench (Example V); format: in vivo, beef steers
Protocol: as §1, §2

Vitamin E
Average Serum Level - Vitamin E ([1]; Treatment 2: positive control, 15 ml drench, 1200 IU Vitamin E in 15 ml water, 6 Hours): 1.8 micrograms/ml
Average Serum Level - Vitamin E ([1]; Treatment 2: positive control, 15 ml drench, 1200 IU Vitamin E in 15 ml water, 24 Hours): 2.0 micrograms/ml
Average Serum Level - Vitamin E ([1]; Treatment 2: positive control, 15 ml drench, 1200 IU Vitamin E in 15 ml water, time 0): 1.8 micrograms/ml
Average Serum Level - Vitamin E ([1]; Treatment 3: solid form vitamins in 2 ml ethanol, 1,000,000 IU A, 100,000 IU D, 1000 IU E, 1 ml per nostril, 6 Hours): 2.7 micrograms/ml
Average Serum Level - Vitamin E ([1]; Treatment 3: solid form vitamins in 2 ml ethanol, 1,000,000 IU A, 100,000 IU D, 1000 IU E, 1 ml per nostril, 24 Hours): 2.8 micrograms/ml
Average Serum Level - Vitamin E ([1]; Treatment 3: solid form vitamins in 2 ml ethanol, 1,000,000 IU A, 100,000 IU D, 1000 IU E, 1 ml per nostril, time 0): 2.7 micrograms/ml
Average Serum Level - Vitamin E ([1]; Treatment 4: vitamin E, A, D oils, Tween 80, nicotinic acid, Carbopol 934P, Pemulen TR2, NaOH, water, 1000 IU E, 1 ml per nostril, 6 Hours): 2.5 micrograms/ml
Average Serum Level - Vitamin E ([1]; Treatment 4: vitamin E, A, D oils, Tween 80, nicotinic acid, Carbopol 934P, Pemulen TR2, NaOH, water, 1000 IU E, 1 ml per nostril, 24 Hours): 2.7 micrograms/ml
Average Serum Level - Vitamin E ([1]; Treatment 4: vitamin E, A, D oils, Tween 80, nicotinic acid, Carbopol 934P, Pemulen TR2, NaOH, water, 1000 IU E, 1 ml per nostril, time 0): 2.7 micrograms/ml
Average Serum Level - Vitamin E ([1]; Treatment 5: vitamin E, A, D oils, Tween 80, Pemulen TR2, NaOH, water, 1000 IU E, 1 ml per nostril, 6 Hours): 2.0 micrograms/ml
Average Serum Level - Vitamin E ([1]; Treatment 5: vitamin E, A, D oils, Tween 80, Pemulen TR2, NaOH, water, 1000 IU E, 1 ml per nostril, 24 Hours): 2.2 micrograms/ml
Average Serum Level - Vitamin E ([1]; Treatment 5: vitamin E, A, D oils, Tween 80, Pemulen TR2, NaOH, water, 1000 IU E, 1 ml per nostril, time 0): 2.1 micrograms/ml
course of serum level of Vitamin E ([1]; Treatment #3, nasal (FIG. 9, curve 920)): increased from 6 hours to 24 hours post-dosing
course of serum level of Vitamin E ([1]; Treatment #5, nasal (FIG. 9, curve 910)): increased from 6 hours to 24 hours post-dosing

Vitamin A
Average Serum Levels-Vitamin A ([2]; Treatment 2: positive control, 15 ml drench, 1,000,000 IU Vitamin A in 15 ml water, 6 Hours): 277 ng/mL
Average Serum Levels-Vitamin A ([2]; Treatment 2: positive control, 15 ml drench, 1,000,000 IU Vitamin A in 15 ml water, 24 Hours): 247 ng/mL
Average Serum Levels-Vitamin A ([2]; Treatment 2: positive control, 15 ml drench, 1,000,000 IU Vitamin A in 15 ml water, time 0): 230 ng/mL
Average Serum Levels-Vitamin A ([2]; Treatment 3: solid form vitamins in 2 ml ethanol, 1,000,000 IU A, 100,000 IU D, 1000 IU B, 1 ml per nostril, 6 Hours): 344 ng/mL
Average Serum Levels-Vitamin A ([2]; Treatment 3: solid form vitamins in 2 ml ethanol, 1,000,000 IU A, 100,000 IU D, 1000 IU B, 1 ml per nostril, 24 Hours): 326 ng/mL
Average Serum Levels-Vitamin A ([2]; Treatment 3: solid form vitamins in 2 ml ethanol, 1,000,000 IU A, 100,000 IU D, 1000 IU B, 1 ml per nostril, time 0): 302 ng/mL
Average Serum Levels-Vitamin A ([2]; Treatment 4: vitamin E, A, D oils, Tween 80, nicotinic acid, Carbopol 934P, Pemulen TR2, NaOH, water, 1,000,000 IU A, 1 ml per nostril, 6 Hours): 314 ng/mL
Average Serum Levels-Vitamin A ([2]; Treatment 4: vitamin E, A, D oils, Tween 80, nicotinic acid, Carbopol 934P, Pemulen TR2, NaOH, water, 1,000,000 IU A, 1 ml per nostril, 24 Hours): 321 ng/mL
Average Serum Levels-Vitamin A ([2]; Treatment 4: vitamin E, A, D oils, Tween 80, nicotinic acid, Carbopol 934P, Pemulen TR2, NaOH, water, 1,000,000 IU A, 1 ml per nostril, time 0): 321 ng/mL
Average Serum Levels-Vitamin A ([2]; Treatment 5: vitamin E, A, D oils, Tween 80, Carbopol TR2, NaOH, water, 1,000,000 IU A, 1 ml per nostril, 6 Hours): 349 ng/mL
Average Serum Levels-Vitamin A ([2]; Treatment 5: vitamin E, A, D oils, Tween 80, Carbopol TR2, NaOH, water, 1,000,000 IU A, 1 ml per nostril, 24 Hours): 353 ng/mL
Average Serum Levels-Vitamin A ([2]; Treatment 5: vitamin E, A, D oils, Tween 80, Carbopol TR2, NaOH, water, 1,000,000 IU A, 1 ml per nostril, time 0): 343 ng/mL
course of serum level of Vitamin A ([2]; Treatment #3: nasal administration of Vitamin A/ethanol solution (FIG. 8, curve 810)): decreased from 6 to 24 hours post-dosing after an initial increase in the first 6 hours
course of serum level of Vitamin A ([2]; Treatment #4, nasal (FIG. 8, curve 830)): increased continuously from 6 hours to 24 hours post-dosing
course of serum level of Vitamin A ([2]; Treatment #5, nasal (FIG. 8, curve 820)): increased from 0 hours to 24 hours post-dosing
